One molecule from patent US20060037085A1, “Animal model for fetal alcohol syndrome and methods of treatment” (priority 2004, published 2006) can be followed below.

Where two headings read alike, the source gives them in different places.

Series [1] has as its system alcohol-induced ROS production. Put plainly: ROS measurement (hydrogen peroxide level in embryos). It is filed as in vivo, Xenopus laevis. The note with it: 0.6% alcohol, stage 13 to 22, harvested at stage 22. The method, then: (A) Embryos were pretreated with or without vitamin C two hours before alcohol treatment (0.6%, 12 h, from stage 13 to 22). The embryos were harvested at stage 22 and the hydrogen peroxide level measured by the colorimetric quantitation of hydrogen peroxide method (total hydroperoxides), according to the protocols provided by the manufacturer (BIOXYTECH H202-560 kit, OXIS International, Inc., USA); (B) The NF-κB mediated transcriptional activity was measured using NF-κB luciferase reporter plasmid (pLuc-NF-κB) containing IL-6 promoter region with four repeats of NF-κB binding sites.
ROS measurement. […] At the end of the experiment, embryos were harvested and total ROS content was determined by the calorimetric quantitation of hydrogen peroxide method (total hydroperoxides), following protocols provided by the manufacturer (BIOXYTECH H202-560 kit, OXIS International, Inc. USA).

Another series has as its system Sox17, Pax6 and VegT. Put plainly: Animal cap explant assay, RT-PCR of gut developmental genes. It is filed as cell-based, Xenopus laevis. The note with it: alcohol. An excerpt:
(§1) Animal cap explant assay. […] Total RNA was extracted from animal caps or whole embryos using TRIZOL reagent (Invitrogen). The total RNA was reverse transcribed using the Superscript system (Invitrogen), and the first strand cDNA of the target gene amplified by PCR.

In the next series the test system is NCAM. The note with it: animal caps until stage 22.
Source text: (§2) RT-PCR Animal caps were dissected from embryos at stage 8.5 and cultured in 67% Leibovitz's L-15 medium, pH 7.5 in the presence or absence of varied concentration of alcohol until stage 22. Total RNA was extracted from cultured animal caps with Trizol reagent (Invitrogen). Primer sets and PCR conditions for NCAM and Pax6 have been described in our previous reports (Peng, Neurobiol. Dis., 2004; Peng, J. Mol. Biol., 2004). PCR products were subject to electrophoresis on TBE gel and visualized by ethidium bromide staining.
as §1
(§3) The Xenopus animal cap is composed of pluripotent cells that can be induced to form neural, mesodermal, or epidermal tissue, and is a useful tissue to assess the activity of various factors on neural development. Animal caps were treated with varied concentrations of alcohol as indicated.

In the next series the test system is Pax6. The note with it: animal caps until stage 22.
Source text: as §2, §1, §3

As for `CCO` [Ethanol, ethanol], the “hydrogen peroxide level in the embryos” value in series [1] (listed as alcohol) is recorded as “significantly augmented”; in series [1] (listed as ethanol), “significantly increased”. Moreover, the “expression of Sox17, Pax6 and VegT” value in the series with Sox17, Pax6 and VegT was “suppressed the expression”. Also, the “reduction of NCAM expression” value is 15% in the series with NCAM (0.1% alcohol), 25% with NCAM (0.2% alcohol), 50% with NCAM (0.3% alcohol) and 70% with NCAM (0.4% alcohol). Besides, the “suppression of Pax6 expression” value in the series with Pax6 (0.1% alcohol) worked out at 25%; in the series with Pax6 (0.2% alcohol), 50%; in the series with Pax6 (0.3% (65 mM) alcohol), 90%.
